# According to patent publication US20150322033A1, “ANTIBACTERIAL AGENT” (priority 2012, published 2015):
# System: S. aureus Mu50
# Experiment: microbe, parasite or virus in culture
# Type: cell-based, Staphylococcus aureus
# Conditions: Staphylococcus aureus, MU50, read-out: MIC (mg/L) Mu50, Example 1, Tables 1 to 10
# Protocol: (§1) S. aureus Mu50 (refer to Hiramatsu, K., Hanaki H., et al., J. Antimicrob. Chemother., 1997, 40(1), 135-6) or S. aureus FDA209P (ATCC 6538P) was cultured overnight at 37° C. in 4 mL of TBS (Tryptical Soy Broth, produced by Becton Dickinson) with shaking. After completion of the culture, the cells were suspended in fresh TBS to prepare a cell suspension showing an absorbance of 0.3 at 578 nm. Then, the cell suspension was diluted 500 times with CAMHB mentioned above.
# (§2) CAMHB containing each test compound at each of the aforementioned concentrations was added to each well of a 96-well plate in a volume of 50 μL/well, the aforementioned cell suspension diluted 500 time was added to the well in a volume of 50 μL/well, and stationary culture was carried out overnight at 37° C.
# (§3) MIC values (mg/L) of the flavones and quinolones against the strains were measured in the same manner as that of the measurement of MIC of Example 1, except that CAMHB containing each of the aforementioned flavones and quinolones prepared in Example 2 was used instead of CAMHB containing each of the test compounds.
# (§4) MIC values of the flavones and quinolone for the strains were measured in the same manners as those of Example 1, except that S. aureus Mu50 NR-1 was also used as Staphylococcus aureus in addition to S. aureus FDA209P and S. aureus Mu50, cell suspensions of the strains were prepared.
# (§5) In the same manner as that of Example 1, MIC values of M-246, M-21, J-Q21, and J-Q12.1 for Staphylococcus aureus were measured. M-246 and M-21 were obtained as commercial products, and as J-Q21 and J-Q12.1, those synthesized in Examples 6 and 7 were used.
row,SMILES,MIC
1,CC(=O)Oc1cc(OC(C)=O)c2c(=O)c(-c3ccc4c(c3)OCCCO4)c(C)oc2c1 [compound 109],128 mg/L
2,COc1cc(OC)c2c(=O)c(-c3ccc(OC)c(OC)c3)coc2c1 [compound 111],128 mg/L
3,COc1cc(O)c2c(=O)c(-c3ccc(O)cc3)coc2c1 [compound 112],> 128 mg/L
4,O=c1c(-c2ccc(O)cc2)coc2cc(O)cc(O)c12 [compound 113],128 mg/L
5,CCOC(=O)c1oc2cc(O)cc(O)c2c(=O)c1-c1ccc(OC)c(OC)c1 [compound 114],> 128 mg/L
6,COc1ccc(-c2coc3cc(O)cc(O)c3c2=O)cc1 [compound 116],128 mg/L
7,COc1ccc(-c2coc3cc(O)cc(O)c3c2=O)cc1OC [compound 117],> 128 mg/L
8,COc1ccc(-c2c(C(F)(F)F)oc3cc(O)cc(O)c3c2=O)cc1OC [compound 118],64 mg/L
9,COc1ccc(-c2c(C)oc3cc(OC(C)=O)cc(OC(C)=O)c3c2=O)cc1 [compound 119],> 128 mg/L
10,COc1cc(OC)c2c(=O)c(-c3ccc(O)cc3)coc2c1 [compound 121],> 128 mg/L
11,CC1(CO)C=Cc2c(cc3occ(-c4ccc(O)cc4)c(=O)c3c2O)O1 (centres unmarked) [compound 122],> 128 mg/L
12,"O=C1CC(c2ccc(O)cc2)Oc2ccccc21 (centres unmarked) [compound 123, 4′-Hydroxyflavanone]",128 mg/L
13,"O=C1CC(c2cccc(O)c2)Oc2ccccc21 (centres unmarked) [compound 124, 3′-Hydroxyflavanone]",128 mg/L
14,COc1ccc(C2CC(=O)c3c(O)cc(O)cc3O2)cc1O (centres unmarked) [compound 125],> 128 mg/L
15,O=C1CC(c2ccccc2)Oc2ccccc21 (centres unmarked) [compound 126],128 mg/L
16,"O=C1CC(c2ccc(O)cc2)Oc2cc(O)cc(O)c21 (centres unmarked) [compound 128, 4′,5,7-Trihydroxyflavanone]",128 mg/L

# System: S. aureus FDA209P (ATCC 6538P)
# Experiment: microbe, parasite or virus in culture
# Type: cell-based, Staphylococcus aureus
# Conditions: Staphylococcus aureus; Example 1, Tables 1 to 10; read-out: MIC (mg/L) FDA209P
# Protocol: as §1, §2, §3, §4, §5
row,SMILES,MIC
1,CC(=O)Oc1cc(OC(C)=O)c2c(=O)c(-c3ccc4c(c3)OCCCO4)c(C)oc2c1 [compound 109],128 mg/L
2,COc1cc(OC)c2c(=O)c(-c3ccc(OC)c(OC)c3)coc2c1 [compound 111],> 128 mg/L
3,COc1cc(O)c2c(=O)c(-c3ccc(O)cc3)coc2c1 [compound 112],> 128 mg/L
4,O=c1c(-c2ccc(O)cc2)coc2cc(O)cc(O)c12 [compound 113],128 mg/L
5,CCOC(=O)c1oc2cc(O)cc(O)c2c(=O)c1-c1ccc(OC)c(OC)c1 [compound 114],> 128 mg/L
6,COc1ccc(-c2coc3cc(O)cc(O)c3c2=O)cc1 [compound 116],128 mg/L
7,COc1ccc(-c2coc3cc(O)cc(O)c3c2=O)cc1OC [compound 117],> 128 mg/L
8,COc1ccc(-c2c(C(F)(F)F)oc3cc(O)cc(O)c3c2=O)cc1OC [compound 118],128 mg/L
9,COc1ccc(-c2c(C)oc3cc(OC(C)=O)cc(OC(C)=O)c3c2=O)cc1 [compound 119],> 128 mg/L
10,COc1cc(OC)c2c(=O)c(-c3ccc(O)cc3)coc2c1 [compound 121],> 128 mg/L
11,CC1(CO)C=Cc2c(cc3occ(-c4ccc(O)cc4)c(=O)c3c2O)O1 (centres unmarked) [compound 122],> 128 mg/L
12,"O=C1CC(c2ccc(O)cc2)Oc2ccccc21 (centres unmarked) [compound 123, 4′-Hydroxyflavanone]",128 mg/L
13,"O=C1CC(c2cccc(O)c2)Oc2ccccc21 (centres unmarked) [compound 124, 3′-Hydroxyflavanone]",128 mg/L
14,COc1ccc(C2CC(=O)c3c(O)cc(O)cc3O2)cc1O (centres unmarked) [compound 125],128 mg/L
15,O=C1CC(c2ccccc2)Oc2ccccc21 (centres unmarked) [compound 126],128 mg/L
16,"O=C1CC(c2ccc(O)cc2)Oc2cc(O)cc(O)c21 (centres unmarked) [compound 128, 4′,5,7-Trihydroxyflavanone]",128 mg/L
